The values below come from patent US8871798B2, “Tricyclic pyridyl-vinyl pyrroles as PAR1 inhibitors” (Sanofi, priority 2010, dated 2014).

In general, IC50 refers to the concentration that inhibits the measured activity by half. High values mean weaker potency, low ones greater potency.

In the test the target is T1, PAR1 (Homo sapiens, UniProt P25116).
T1 construct: endogenous in cells; host or cells: washed platelets from blood of healthy volunteers
T1 sequence (P25116 22-425): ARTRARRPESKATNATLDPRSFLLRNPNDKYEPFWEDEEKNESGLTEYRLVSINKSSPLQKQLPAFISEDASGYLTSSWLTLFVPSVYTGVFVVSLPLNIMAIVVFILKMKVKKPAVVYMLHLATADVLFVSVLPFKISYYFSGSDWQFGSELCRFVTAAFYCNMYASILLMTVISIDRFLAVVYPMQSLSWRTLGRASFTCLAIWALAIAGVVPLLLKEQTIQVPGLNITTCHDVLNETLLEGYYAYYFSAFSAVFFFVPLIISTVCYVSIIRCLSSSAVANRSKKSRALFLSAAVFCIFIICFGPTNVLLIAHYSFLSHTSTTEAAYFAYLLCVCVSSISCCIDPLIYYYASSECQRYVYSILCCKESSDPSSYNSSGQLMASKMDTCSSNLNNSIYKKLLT
The test can be described thus: Inhibition of PAR1-mediated platelet aggregation induced by TRAP (thrombin receptor-activating peptide), washed platelets, 96-well format. Format: cell-based. Conditions: TRAP-induced aggregation of platelets from healthy volunteers; 30 min preincubation at RT; AUC of kinetics at 650 nm, 37° C., 20 minutes. The protocol:
PAR1 Determination Method: Inhibition of PAR1-Mediated Platelet Aggregation
The pharmacological testing of the substances took place in platelet aggregation induced by TRAP (thrombin receptor-activating peptide) in 96-well format. For this purpose, blood was taken from healthy volunteers in 20 ml syringes containing 2 ml of 3.13% strength sodium citrate solution. After centrifugation at 150×g for 20 minutes, the platelet-rich plasma (PRP) was separated off and mixed with 1 μl of PGE1 solution (500 μg/ml in ethanol)/ml of PRP. Incubation at RT for 5 minutes was followed by centrifugation at 120×g for 15 minutes to remove the leukocytes. The leukocyte-free PRP was transferred in 5 ml portions into 15 ml PP tubes and centrifuged at 360×g for 15 minutes in order to pellet the platelets. The plasma was then decanted off and the platelet sediment from 5 ml of PRP was resuspended in 1 ml of Tyrode's (120 mM NaCl, 2.6 mM KCl, 12 mM NaHCO3, 0.39 mM NaH2PO4×H2O, 10 mM HEPES, 0.35% BSA (Bovine Serum Albumin), 5.5 mM glucose, pH 7.4) and adjusted with Tyrode's to a platelet count of 3×10^5/microliter (μl). 13 ml of this cell suspension were then mixed with 866 μl of 10 mM CaCl2 solution, and 120 μl thereof were pipetted into each well of a 96-well plate containing 15 μl of the substance to be tested. After incubation at RT in the dark for 30 minutes, 15 μl of a TRAP solution (70-100 μM) were added as agonist, and kinetics were recorded at 650 nm in a SpectraMax 340 at 37° C. for 20 minutes while shaking. The areas under the curves of negative control (Tyrode's/DMSO) and positive control (15 μl of agonist DMSO) were calculated and the difference was fixed as the 100% value. The substances to be tested were pipetted as serial dilutions in duplicate determination, the AUC was likewise determined for each substance concentration, and the % inhibition of the AUC compared with the control was calculated. On the basis of the % inhibition, the IC50 was calculated by nonlinear regression analysis according to the 4-parameter equation.
In turn, `COc1ccccc1-c1ccc(/C=C/[C@H]2[C@H]3C(=O)N(C)C(=O)[C@H]3[C@@H]3CCCCN23)nc1` (racemic) [Example 19, 4-{(E)-2-[5-(2-Methoxyphenyl)pyridin-2-yl]vinyl}-2-methyloctahydropyrrolo[3,4-a]-indolizine-1,3-dione] registered an IC50 of 4.09 µM.

As for `CN1C(=O)C2C(C1=O)C1COCCN1C2/C=C/c1ccc(-c2cccc(F)c2)cn1` (racemic) [13 (Fr. 3), 6-{(E)-2-[5-(3-Fluorophenyl)pyridin-2-yl]vinyl}-8-methylhexahydropyrrolo[3′,4′:3,4]pyrrolo[2,1-c][1,4]oxazine-7,9-dione], the IC50 stood at 7.1 µM.

The compound `CCN1C(=O)C2C(C1=O)C1CCCCN1C2/C=C/c1ccc(-c2cccc(F)c2)cn1` (racemic) [14 (Fr. 3), 2-Ethyl-4-{(E)-2-[5-(3-fluorophenyl)pyridin-2-yl]vinyl}octahydropyrrolo[3,4-a]indolizine-1,3-dione] came in with an IC50 of 3.68 µM.

In the case of `CN1C(=O)[C@@H]2[C@H](C1=O)[C@H](/C=C/c1ccc(-c3cccc(C(F)(F)F)c3)cn1)N1CCCC[C@@H]21` (racemic) [Example 18, 2-Methyl-4-{(E)-2-[5-(3-trifluoromethylphenyl)pyridin-2-yl]vinyl}octahydropyrrolo[3,4-a]indolizine-1,3-dione], the IC50 is 3.23 µM.

Compound `CN1C(=O)[C@@H]2[C@H](C1=O)[C@H](/C=C/c1ccc(-c3ccccc3Cl)cn1)N1CCCC[C@@H]21` (racemic) [Example 20, 4-{(E)-2-[5-(2-Chlorophenyl)pyridin-2-yl]vinyl}-2-methyloctahydropyrrolo[3,4-a]-indolizine-1,3-dione] gave an IC50 of 0.26 µM.

Compound `CN1C(=O)C2C(C1=O)C1C[C@H](O)CN1C2/C=C/c1ccc(-c2cccc(F)c2)cn1` (mixture of isomers) [11 (Fr. 2), (S)-4-{(E)-2-[5-(3-Fluorophenyl)pyridin-2-yl]vinyl}-7-hydroxy-2-methylhexahydropyrrolo[3,4-a]pyrrolizine-1,3-dione] returned an IC50 of 15.8 µM. This IC50 lies about 61-fold higher than the previous one.
